Read-outs that look alike come from different tables or passages of the source. Marks after values point to notes of the source that are not given here.
Tests used:
Format in all cases: physicochemical
[1] = XPS phosphorus over metal ratio on Titanium grade 5 dental implant (prospective data); conditions: 0.5 mM, sonicated 65° C. 10 min, Metal = Ti2p + Al2s + V2p
Procedure: A Titanium grade 5 dental implant (bulk composition atomic concentration Titanium 90%, Aluminum 6%, Vanadium 4%; length 11.0 mm, diameter 3.75 mm) is provided with a roughened surface, produced by sand blasting and acid etching according to industry standards. The dental implant is immersed in 30 ml of a 2% (v/v) aqueous solution of deconex 15 PF-x (which is a phosphate free, potassium hydroxide based standard cleaning agent). The solution is placed in an ultrasonic bath (output frequency 30 kHz) and sonicated at 65° C. for 15 min. The implant is removed from the cleaning agent solution and rinsed with water as follows: 2 times with 30 ml, swirling at room temperature; 4 times with 30 ml, sonicating for 2 min at 65° C.; 1 time with 30 ml, swirling at room temperature. […] The solution is placed in the ultrasonic bath and sonicated at 65° C. for 10 min. The implant is rinsed with water as follows: 2 times with 10 ml, swirling at room temperature; 1 time with 10 ml, sonicating for 2 min at 65° C.; 1 time with 10 ml, swirling at room temperature. The dental implant is dried in a desiccator over P2O5 and under vacuum (ca 20 mbar) for at least 3 hours. The samples are analyzed by X-ray photoelectron spectroscopy (XPS). Same analysis conditions as described in Example 8 are used.

[2] = as above; conditions: room temperature comparative process
[3] = XPS phosphorus over metal ratio on Titanium grade 4 cylinders
Procedure: XPS analyses were performed on an Axis Ultra spectrometer from Kratos (Kratos, Manchester, U.K.) equipped with a concentric hemispherical analyzer and using a monochromatized aluminum anode X-ray source (Al Kα1,2 1486.6 eV, full width at half maximum, fwhm=0.85 eV, 15 kV, 150 W). The samples were investigated under ultrahigh vacuum conditions: 10^−8-10^−7 Pa. Spectra were taken at a 90° takeoff angle with respect to the surface. A sample area of 300×700 μm^2 or 700×700 μm^2 was analyzed with a pass energy of 80.0 eV for survey scans. The spectrometer was calibrated by using Cu 2p3/2 (932.7 eV) and Au 4f7/2 (84.0 eV) signals. Surface sensitivity factors used to determine the atomic concentrations were those of the instrument. Spectra were peak fitted after background subtraction by assuming a Gaussian/Lorentzian (90-70/10-30) peak shape. All peaks between 0 eV to 1200 eV were inspected.
Two Titanium grade 4 cylinders (bulk composition atomic concentration Titanium 100%; length 6.0 mm, diameter 2.4 mm) were provided with a roughened surface, produced by sand blasting and acid etching according to industry standards. The cylinders were immersed in 6 ml of a 2% (v/v) aqueous solution of deconex 15 PF-x (which is a phosphate free, potassium hydroxide based standard cleaning agent). The solution was placed in an ultrasonic bath (output frequency 30 kHz) and sonicated at 65° C. for 15 min. The cylinders were removed from the cleaning agent solution and rinsed with water as follows: 2 times with 10 ml, swirling at room temperature; 4 times with 10 ml, sonicating for 2 min at 65° C.; 1 time with 10 ml, swirling at room temperature. The cylinders were then placed into 6 ml of a 0.7 mM aqueous solution of 1,1,3,3-propane tetraphosphonic acid. The solution was placed in the ultrasonic bath and sonicated at 65° C. for 15 min. The cylinders were rinsed with water as follows: 2 times with 10 ml, swirling at room temperature; 1 time with 10 ml, sonicating for 2 min at 65° C.; 1 time with 10 ml, swirling at room temperature. The cylinders were dried in a desiccator over P2O5 and under vacuum (ca 20 mbar) for at least 3 hours.
Two Titanium grade 4 cylinders (bulk composition atomic concentration Titanium 100%; length 6.0 mm, diameter 2.4 mm) were provided with a roughened surface, produced by sand blasting and acid etching according to industry standards. The cylinders were immersed in 6 ml of a 2% (v/v) aqueous solution of deconex 15 PF-x (which is a phosphate free, potassium hydroxide based standard cleaning agent). The solution was placed in an ultrasonic bath (output frequency 30 kHz) and sonicated at room temperature for 15 min. The cylinders were removed from the cleaning agent solution and rinsed with water as follows: 2 times with 10 ml, swirling at room temperature; 4 times with 10 ml, sonicating for 2 min at room temperature; 1 time with 10 ml, swirling at room temperature. The cylinders were then placed into 6 ml of a 0.7 mM aqueous solution of 1,1,3,3-propane tetraphosphonic acid. The solution was swirled thoroughly and left to stand at room temperature for 15 min. The cylinders were rinsed with water as follows: 2 times with 10 ml, swirling at room temperature; 1 time with 10 ml, sonicating for 2 min at room temperature; 1 time with 10 ml, swirling at room temperature. The cylinders were dried in a desiccator over P2O5 and under vacuum (ca 20 mbar) for at least 3 hours.

[4] = Concentration 2 mM, sonicated 65° C. 15 min, Metal = Ti2p

O=C(CP(=O)(O)O)Oc1ccccc1C(=O)O [PA-9, 2-(2-phosphonoacetoxy)benzoic acid]
Phosphorus/Metal (surface treatment as described herein above) [1]: 0.16-0.20 | Phosphorus/Metal (surface treatment as described in Comp. Example 6) [2]: 0.05-0.11

C=CCP(=O)(O)O [PA-4, 1-propene-3-phosphonic acid]
Phosphorus/Metal (surface treatment as described herein above) [1]: 0.16-0.20 | Phosphorus/Metal (surface treatment as described in Comp. Example 6) [2]: 0.05-0.11

CC(C)(C)P(=O)(O)O [PA-3, tert-butyl phosphonic acid]
Phosphorus/Metal (surface treatment as described herein above) [1]: 0.16-0.20 | Phosphorus/Metal [3, 4]: 0.02^b | Phosphorus/Metal (surface treatment as described in Comp. Example 6) [2]: 0.05-0.11

O=P(O)(O)CP(=O)(O)O [Methylene-1,1-diphosphonic acid]
Phosphorus/Metal [3]: 0.10^b

O=P(O)(O)c1ccccc1 [PA-6, phenyl-1-phosphonic acid]
Phosphorus/Metal (surface treatment as described herein above) [1]: 0.16-0.20 | Phosphorus/Metal [3, 4]: 0.03^b | Phosphorus/Metal (surface treatment as described in Comp. Example 6) [2]: 0.05-0.11

CC(O)(P(=O)(O)O)P(=O)(O)O [PA-10, etidronic acid, reference compound]
Phosphorus/Metal (surface treatment as described herein above) [1]: 0.16-0.20 | Phosphorus/Metal ([3]; Concentration 1 mM, sonicated 65° C. 15 min, Metal = Ti2p): 0.09^b | Phosphorus/Metal (surface treatment as described in Comp. Example 6) [2]: 0.05-0.11

NC(CP(=O)(O)O)C(=O)O (centres unmarked) [PA-8, 2-amino-3-phosphonopropionic acid]
Phosphorus/Metal (surface treatment as described herein above) [1]: 0.16-0.20 | Phosphorus/Metal (surface treatment as described in Comp. Example 6) [2]: 0.05-0.11

O=P(O)(O)CCCP(=O)(O)O [PA-2, propane-1,3-diphosphonic acid]
Phosphorus/Metal (surface treatment as described herein above) [1]: 0.16-0.20 | Phosphorus/Metal (surface treatment as described in Comp. Example 6) [2]: 0.05-0.11

O=P(O)(O)C1CCCCC1 [PA-5, 1-cyclohexyl phosphonic acid]
Phosphorus/Metal (surface treatment as described herein above) [1]: 0.16-0.20 | Phosphorus/Metal (surface treatment as described in Comp. Example 6) [2]: 0.05-0.11

Reference: patent publication US11000627B2, “Treatment of implants with phosphonic acid compounds” (Nano Bridging Molecules SA, priority 2016, dated 2021)
